# In patent US11129820B2, “Ferroportin-inhibitor salts” (Vifor (International) AG, priority 2017, dated 2021):
# Marks after values point to notes of the source that are not given here.
# Legend:
# [1] = system: beta2-microglobulin deficient (b2m−/−) mice; assay: Prevention of iron overload in beta2-microglobulin deficient mice; format: in vivo, mouse; conditions: 14 days
# Method: In addition, feeding 3 week old b2m−/− mice a diet with low iron content (LID) immediately after weaning prevents liver iron loading by age of 6-7 weeks. The efficacy of the Fpn inhibitors to prevent liver iron accumulation in b2m−/− mice is investigated. Three weeks old b2−/− mice fed LID are dosed with either Fpn inhibitor or vehicle (methylcellulose; 10 ml/kg). Mice have access to drinking water supplemented with 1 mM ^58Fe(II)-sulfate and 10 mM ascorbic acid. Dosing of Fpn inhibitor or vehicle followed by exposure to iron-containing water is repeated for 14 days. Mice are euthanized and the liver and spleen iron contents are analyzed by ICP-OES (all iron isotopes) and liver tissue is also analyzed for ^58Fe concentration (ICP-MS).
# Livers and spleens are collected after 14 day treatment (p.o.; b.i.d) of beta2-microglobulin deficient mice with the indicated doses of Fpn inhibitors. Total liver and spleen tissue iron concentrations are measured using ICP-OES and ^58Fe liver concentrations are determined with ICP-MS. Relative changes (%) of tissue iron levels are calculated by normalizing the difference between the averages of tissue iron values of animals dosed with the Fpn inhibitors and those of vehicle-treated animals with the average of vehicle controls.
# [2] = system: beta2-microglobulin deficient (b2m−/−) mice; assay: Correction of hyperferremia in beta2-microglobulin deficient mice; format: in vivo, mouse; conditions: blood collection time not marked
# Method: Female and male homozygous b2m−/− mice are supplied from Jackson Laboratories (B6.129P2-B2mtm1Unc/J, Stock Number: 002087) at age of 6 to 7 weeks and fed standard diet (Harlan Provimi Kliba 3436) ad libitum. Age and gender matched WT C57BL/6 mice are supplied by Charles River. To study the acute effects of ferroportin (Fpn) inhibitors in iron overload b2m−/− mice are treated with compounds or the corresponding amount of vehicle at a volume of 10 ml/kg body weight. Fpn inhibitor compounds are formulated in 0.5% methylcellulose/water or 20% cremophor EL/water and dosed p.o. in mice at 50 mg/kg body weight. WT controls received only vehicle. Three hours later, mice are pre-terminally anesthetized in isoflurane chambers and blood is collected by retro-orbital bleeding. Mice are sacrificed by cervical dislocation and spleens, livers and duodena are harvested and used for biomarker analysis. All experiments are performed in compliance with license approved by the responsible veterinarian authorities. Serum is isolated by centrifugation of blood into gel-containing microtainers (BD Biosciences) and serum iron is determined by the MULTIGENT Iron assay (Abbott Diagnostics, Cat. 6K95). Four to nine mice per group are used and one-way ANOVA with Bonferroni's multiple comparison test is applied to analyze the statistical differences between the experimental groups.
# Blood is collected 1 (#) or 3 (##) hours after oral administration of the indicated doses of Fpn inhibitors to beta2-microglobulin deficient mice and serum iron concentrations are measured. Relative reduction (%) of serum iron levels are shown, which were calculated by subtracting the average of serum iron values of animals dosed with the Fpn inhibitor from that of vehicle-treated animals. The difference in average serum iron values between vehicle and compound treated groups was then divided by the average of serum iron of the vehicle control group and listed as percentage. Values are listed separately for female (♀) and male (♂) animals, because a marked sex-dependent difference in efficacy was noted. Statistically significant (2-way ANOVA with Bonferroni post test) differences observed between compound-treated and vehicle-treated groups are indicated (*** p<0.001; ** p<0.01, p<0.05).
# [3] = system: Hbb th3/+ mice; assay: Mouse model of β-thalassemia intermedia (Hbb th3/+ mice); format: in vivo; conditions: for Decrease in RDW by 20/60 mg/kg compound / Decrease in ^58Fe spleen iron content by 20/60 mg/kg compound / Decrease in blood reticulocyte counts by 20/60 mg/kg compound / Decrease in leukocyte counts by 20/60 mg/kg compound / Decrease in relative spleen weight by 20/60 mg/kg / Decrease in serum erythropoietin by 20/60 mg/kg compound / Increase in blood erythrocyte counts by 20/60 mg/kg compound / Increase in hematocrit by 20/60 mg/kg compound / Prevention of liver ^58Fe loading by 20/60 mg/kg / Decrease in serum iron by 20/60 mg/kg compound / Decreased in ROS in bone marrow erythrocytes: % change to vehicle; for Correction of anemia at day 20-48 by 20/60 mg/kg: hemoglobin difference to vehicle; for Decrease in serum iron by 20/60 mg/kg compound: dosed for 3 h
# Method: The efficacy of Fpn inhibitors is investigated using a mouse model of transfusion-independent β-thalassemia. Mice with heterozygous deletion of β 1 and β 2 globin genes (called Hbb th3/+ mice) develop transfusion-independent anemia, ineffective erythropoiesis, splenomegaly and secondary iron overload in spleen, liver and kidneys. […] Hbb th3/+ mice are dosed twice daily with either compound at 20 or 60 mg/kg or with methylcellulose (10 ml/kg, Sigma, Cat. 274429) as a vehicle. Between both doses mice have access to drinking water supplemented with 1 mM ^58Fe(II)-sulfate (Vifor Pharma, Batch No. ROR 3096) and 10 mM ascorbic acid (Sigma, Cat. 795437) for 6 h. The concentration of ^58Fe(II)-Sulfate supplied in the drinking water is adjusted to substitute for intake of standard rodent diet with iron content of 250 ppm. Water without ^58Fe(II)-Sulfate and ascorbic acid is provided during the remaining 18 h. Dosing of Fpn inhibitors or vehicle followed by exposure to iron-containing water is repeated for 20 to 46 days in individual experiments.
# Additional hematologic parameters are measured in terminal blood using automated blood cell analyzer.
# The inefficient erythropoiesis of Hbb th3/+ mice causes excessive proliferation of erythroid precursors in spleen, leading to splenomegaly.
# Elevated erythropoietin levels in Hbb th3/+ mice induce overexpression of erythroferrone, an erythroid regulator hormone known to suppress hepcidin (Kautz L. et al, Nat. Genet., 2014). […] Erythroferrone is produced by erythrocyte precursors proliferating massively in spleens of Hbb th3/+ mice as a consequence of extramedullar erythropoiesis.
# Increased iron demand due to inefficient erythropoiesis and chronically low hepcidin levels in patients with thalassemia causes organ iron loading and associated morbidities, such as hepatocellular carcinoma and heart failure (Rivella S. Haematologica, 2015). Hbb th3/+ mice absorb excessive amounts of iron as a consequence of inadequately low hepcidin levels relative to the high iron content in liver, spleen and kidney and increased ferroportin expression in duodenum (Gardenghi S., Blood, 2007).
# Additionally, reactive oxygen species (ROS) are detected in bone marrow cells using a fluorescent indicator, CM-H2DCFDA (Thermo Fisher Scientific, Cat. C6827).
# Data are expressed as difference to the vehicle control group for hemoglobin and as % change to the vehicle control group for all other parameter shown
# [4] = 20 mg/kg twice daily for 20-46 days
# [5] = 60 mg/kg twice daily for 20-46 days
smiles,measurement,setting,value
O=C(NCc1ncccc1F)c1cnc(C2CN(CCc3nc4ccccc4[nH]3)C2)o1 [Example Compound No. 2],Total Liver Iron Reduction (%),"[1]; female ♀, 20 mg/kg p.o. b.i.d.",26%
same,Total Spleen Iron Increase (%),"[1]; female ♀, 20 mg/kg p.o. b.i.d.",13%
same,^58Fe Liver Iron Reduction (%),"[1]; female ♀, 20 mg/kg p.o. b.i.d.",60** %
same,Total Liver Iron Reduction (%),"[1]; female ♀, 60 mg/kg p.o. b.i.d.",45%
same,Total Spleen Iron Increase (%),"[1]; female ♀, 60 mg/kg p.o. b.i.d.",1%
same,^58Fe Liver Iron Reduction (%),"[1]; female ♀, 60 mg/kg p.o. b.i.d.",77*** %
same,Total Liver Iron Reduction (%),"[1]; male ♂, 20 mg/kg p.o. b.i.d.",10%
same,Total Spleen Iron Increase (%),"[1]; male ♂, 20 mg/kg p.o. b.i.d.",18%
same,^58Fe Liver Iron Reduction (%),"[1]; male ♂, 20 mg/kg p.o. b.i.d.",24%
same,Total Liver Iron Reduction (%),"[1]; male ♂, 60 mg/kg p.o. b.i.d.",28%
same,Total Spleen Iron Increase (%),"[1]; male ♂, 60 mg/kg p.o. b.i.d.",−20%
same,^58Fe Liver Iron Reduction (%),"[1]; male ♂, 60 mg/kg p.o. b.i.d.",70%
same,Serum Iron Reduction (%),"[2]; female ♀, 20 mg/kg oral",27%
same,Serum Iron Reduction (%),"[2]; female ♀, 60 mg/kg oral",57** %
same,Serum Iron Reduction (%),"[2]; male ♂, 20 mg/kg oral",29%
same,Serum Iron Reduction (%),"[2]; male ♂, 60 mg/kg oral",66** %
same,Decrease in RDW by 20/60 mg/kg compound,[3]; [4],0%
same,Decrease in ^58Fe spleen iron content by 20/60 mg/kg compound,[3]; [4],13%
same,Decrease in blood reticulocyte counts by 20/60 mg/kg compound,[3]; [4],0%
same,Decrease in leukocyte counts by 20/60 mg/kg compound,[3]; [4],29%
same,Decrease in relative spleen weight by 20/60 mg/kg,[3]; [4],16%
same,Decrease in serum erythropoietin by 20/60 mg/kg compound,[3]; [4],4%
same,Increase in blood erythrocyte counts by 20/60 mg/kg compound,[3]; [4],0%
same,Increase in hematocrit by 20/60 mg/kg compound,[3]; [4],0%
same,Prevention of liver ^58Fe loading by 20/60 mg/kg,[3]; [4],14%
same,Correction of anemia at day 20-48 by 20/60 mg/kg,[3]; 20 mg/kg twice daily,3 g/L
same,Decrease in serum iron by 20/60 mg/kg compound,[3]; 20 mg/kg,50%
same,Decrease in RDW by 20/60 mg/kg compound,[3]; [5],15%
same,Decrease in ^58Fe spleen iron content by 20/60 mg/kg compound,[3]; [5],40%
same,Decrease in blood reticulocyte counts by 20/60 mg/kg compound,[3]; [5],11%
same,Decrease in leukocyte counts by 20/60 mg/kg compound,[3]; [5],55%
same,Decrease in relative spleen weight by 20/60 mg/kg,[3]; [5],47%
same,Decrease in serum erythropoietin by 20/60 mg/kg compound,[3]; [5],27%
same,Increase in blood erythrocyte counts by 20/60 mg/kg compound,[3]; [5],33%
same,Increase in hematocrit by 20/60 mg/kg compound,[3]; [5],15%
same,Prevention of liver ^58Fe loading by 20/60 mg/kg,[3]; [5],47%
same,Correction of anemia at day 20-48 by 20/60 mg/kg,[3]; 60 mg/kg twice daily,11 g/L
same,Decrease in serum iron by 20/60 mg/kg compound,[3]; 60 mg/kg,69%
same,Decreased in ROS in bone marrow erythrocytes,[3]; first value of the pair (20 mg/kg; dose not printed in this line),13%
same,Decreased in ROS in bone marrow erythrocytes,[3]; second value of the pair (60 mg/kg; dose not printed in this line),65%
